Test results as given in patent US20130131161A1, “METHODS AND COMPOSITIONS FOR CARDIOVASCULAR DISEASES AND CONDITIONS” (priority 2009, published 2013).
Where “and” joins values, the source holds several entries; their conditions need not be identical. Equal entries are not always repeated.

System: Human umbilical vein endothelial cells (HUVECs)
Assay: eNOS activity analysis: NO, ONOO− and NO/ONOO− release from HUVECs of 50 genotyped donors in response to LA-419 (Example 2)
Assay type: cell-based
Details: for Fold difference NO/ONOO− (mean ± sd) / Fold difference ONOO− (mean ± sd) / Fold difference NO (mean ± sd): Caucasian, (LA-419 5 μM)/(control); for % Change NO (mean ± sd) / % Change NO/ONOO− (mean ± sd) / % Change ONOO− (mean ± sd): LA-419 1 μM vs control
Experimental: Concurrent measurements of NO and ONOO^− were carried out with tandem electrochemical nanosensors combined into one working unit with a total diameter of 200-500 nm (FIG. 1). Their design was based on previously developed and well-characterized chemically modified carbon-fiber technology (Malinski and Taha, 1992; Lvovich and Scheeline, 1997). Each of the nanosensors was made by depositing a sensing material on the tip of a carbon fiber (length 4-5 μm, diameter 0.2-0.5 μm). The fibers were sealed with nonconductive epoxy and electrically connected to copper wires with conductive silver epoxy. A conductive film of polymeric nickel (II) tetrakis(3-methoxy-4-hydroxyphenyl)porphyrin for the NO-sensor and polymeric film of Mn (III) [2.2]paracyclophanylporphyrin was used for the ONOO^−-sensor.
A module of NO/ONOO^− nanosensors (diameter 1-2 μm) with a platinum wire (0.1 mm) counter electrode and saturated calomel reference electrode (SCE) were applied. Differential pulse voltammetry (DPV) and amperometry were performed with a computer-based Gamry VFP600 multichannel potentiostat. DPV was used to measure the basal NO and ONOO^− concentrations, and amperometry was used to measure changes in NO and ONOO^− concentrations from its basal level with time. The DPV current at the peak potential characteristic for NO oxidation (0.65 V) and ONOO^− reduction (−0.45 V) was directly proportional to the local concentrations of these compounds in the immediate vicinity of the sensor. Linear calibration curves (current vs. concentration) were constructed for each sensor from 10 nM to 3 μM before and after measurements with aliquots of NO and ONOO^− standard solutions, respectively. The detection limit of the sensors was 1.0 nM.
The quantification of each analyte (concentration in nM) was performed using a maximum current from amperograms and standard calibration curves. A reproducibility of measurements with nanosensors is relatively high (between 5-12%). […] The sensors were slowly raised 5±2 μm from the surface of a single endothelial cell. The eNOS agonist, calcium ionophore A23187 (CaI) as well as the different drugs were then added to the surrounding media at the cell surface with a nanoinjector that was also positioned by a computer controlled-micromanipulator.
This example describes the genotype-specific response of the three major eNOS variants to 1 μM and 5 μM concentrations of LA-419. The three major genetic polymorphisms studied were the Glu298Asp variant (E298D or 894G→T) in exon 7 of […], the −786T→C variant in the promoter region, and the intron 4 polymorphism (VNTR). All of these variants have possible effects on the cardiovascular system and endothelial dysfunction. For this study, human umbilical vein endothelial cells (HUVECs) from 50 donors between 18 and 32 years of age were used.
For the analysis several analysis techniques were employed. First, the effect of genotype on NO and ONOO^− release was explored within the different concentrations of LA-419 (control, 1 μM, 5 μM), calculated as the average peak release (nmols/L) of NO, ONOO^−, and NO/ONOO^−. The effect of genotype on the net increase in NO, ONOO^−, and NO/ONOO^− for LA-419 (1 μM and 5 μM) as compared to control was also measured. In addition, an analysis was done on the effect of genotype on the % change in NO, ONOO^−, and NO/ONOO^− production for LA-419 (1 μM and 5 μM), calculated as:
% Change=[(avg. LA-419−avg. control)/(avg. control)]*100
Finally, an evaluation was undertaken concerning the effect of genotype on the production of NO, ONOO^−, and NO/ONOO^− as the fold difference of control for LA-419 (1 μM and 5 μM), calculated as:
Fold Difference=(avg. LA-419)/(avg. control)
Within each calculation technique the results were compared for statistical significance using a non-parametric ANOVA Kruskal-Wallace test or a non-parametric Mann-Whitney U test. Statistical significance was set at a p-value <0.05 in a two-tailed distribution. […]

[1] = HUVEC donor Race Caucasian/Black

For `CC(=O)SC1COC2C(O[N+](=O)[O-])COC12` (stereo not drawn) [LA-419, S-(6-Nitro-oxi-hexahydro-furo[3,2-b]furan-3-1-il)thioacetate], the “Fold difference NO/ONOO− (mean ± sd)” value (G894T G/G, n=10) was 1.47 (0.12), the “Fold difference ONOO− (mean ± sd)” value (G894T G/G, n=10) was 0.81 (0.04) and the “Fold difference NO (mean ± sd)” value (G894T G/T & T/T, n=16) was 1.11 (0.05). For the same compound, the “Fold difference NO/ONOO− (mean ± sd)” value (G894T G/T & T/T, n=16) was 1.35 (0.10), the “Fold difference ONOO− (mean ± sd)” value (G894T G/T & T/T, n=16) was 0.83 (0.07) and the “Fold difference NO (mean ± sd)” value (G894T G/T, n=13) was 1.12 (0.05). The “Fold difference NO/ONOO− (mean ± sd)” value (G894T G/T, n=13) was 1.34 (0.09), the “Fold difference ONOO− (mean ± sd)” value (G894T G/T, n=13) was 0.83 (0.06) and the “Fold difference NO (mean ± sd)” value (G894T T/T, n=3) was 1.11 (0.07). The “Fold difference NO/ONOO− (mean ± sd)” value (G894T T/T, n=3) was 1.39 (0.17), the “Fold difference ONOO− (mean ± sd)” value (G894T T/T, n=3) was 0.80 (0.12) and the “Fold difference NO (mean ± sd)” value (Intron 4 b/a & a/a, n=6) was 1.16 (0.06). For the same compound, the “Fold difference NO/ONOO− (mean ± sd)” value (Intron 4 b/a & a/a, n=6) was 1.39 (0.11), the “Fold difference ONOO− (mean ± sd)” value (Intron 4 b/a & a/a, n=6) was 0.83 (0.05) and the “Fold difference NO (mean ± sd)” value (Intron 4 b/a, n=5) was 1.16 (0.06). For the same compound, the “Fold difference NO/ONOO− (mean ± sd)” value (Intron 4 b/a, n=5) was 1.39 (0.12), the “Fold difference ONOO− (mean ± sd)” value (Intron 4 b/a, n=5) was 0.83 (0.05) and the “Fold difference NO (mean ± sd)” value (Intron 4 b/b, n=18) was 1.13 (0.07). For the same compound, the “Fold difference NO/ONOO− (mean ± sd)” value (Intron 4 b/b, n=18) was 1.39 (0.13), the “Fold difference ONOO− (mean ± sd)” value (Intron 4 b/b, n=18) was 0.82 (0.06) and the “Fold difference NO (mean ± sd)” value (T-786C T/C & C/C, n=16) was 1.12 (0.06). For the same compound, the “Fold difference NO/ONOO− (mean ± sd)” value (T-786C T/C & C/C, n=16) was 1.36 (0.10), the “Fold difference ONOO− (mean ± sd)” value (T-786C T/C & C/C, n=16) was 0.82 (0.06) and the “Fold difference NO (mean ± sd)” value (T-786C T/C, n=15) was 1.13 (0.06). The “Fold difference NO/ONOO− (mean ± sd)” value (T-786C T/C, n=15) was 1.35 (0.09), the “Fold difference ONOO− (mean ± sd)” value (T-786C T/C, n=15) was 0.83 (0.04) and the “Fold difference NO (mean ± sd)” value (T-786C T/T, n=10) was 1.17 (0.08). For the same compound, the “Fold difference NO/ONOO− (mean ± sd)” value (T-786C T/T, n=10) was 1.49 (0.14) and 1.45 (0.14), the “Fold difference ONOO− (mean ± sd)” value (T-786C T/T, n=10) was 0.82 (0.07) and the “peak release of NO versus control” value (LA-419 1 μM (Table c1)) was “smaller increase”. For the same compound, the “ONOO− production versus control” value (LA-419 1 μM (Table c2)) was “no apparent decrease”, the “% Change NO (mean ± sd)” value [1] was 9.57 (6.43) % and the “% Change NO/ONOO− (mean ± sd)” value [1] was 3.77 (26.27) %. The “% Change ONOO− (mean ± sd)” value [1] was 9.37 (21.79) %, the “% Change NO (mean ± sd)” value (HUVEC donor Race Not Reported) was 14.50 (2.19) % and the “% Change NO/ONOO− (mean ± sd)” value (HUVEC donor Race Not Reported) was 37.24 (1.75) %. For the same compound, the “% Change ONOO− (mean ± sd)” value (HUVEC donor Race Not Reported) was −16.55 (2.66) %, the “% Change NO (mean ± sd)” value (HUVEC donor alpha) was −4.73 (18.81) % and the “% Change NO/ONOO− (mean ± sd)” value (HUVEC donor alpha) was −8.17 (36.37) %. For the same compound, the “% Change ONOO− (mean ± sd)” value (HUVEC donor alpha) was 16.25 (36.48) %, the “% Change NO (mean ± sd)” value (HUVEC donor beta) was 21.25 (25.58) % and the “% Change NO/ONOO− (mean ± sd)” value (HUVEC donor beta) was 61.80 (74.46) %. For the same compound, the “% Change ONOO− (mean ± sd)” value (HUVEC donor beta) was −18.41 (17.30) %, the “% Change NO (mean ± sd)” value (HUVEC donor delta) was 8.95 (0) % and the “% Change NO/ONOO− (mean ± sd)” value (HUVEC donor delta) was 33.68 (0) %. The “% Change ONOO− (mean ± sd)” value (HUVEC donor delta) was −18.50 (0) %, the “% Change NO (mean ± sd)” value (HUVEC donor gamma) was 11.74 (17.99) % and the “% Change NO/ONOO− (mean ± sd)” value (HUVEC donor gamma) was 26.85 (45.85) %. The “% Change ONOO− (mean ± sd)” value (HUVEC donor gamma) was −6.29 (19.74) %, the “% Change NO (mean ± sd)” value (HUVECs G894T variant G/G) was 7.77 (18.82) % and the “% Change NO/ONOO− (mean ± sd)” value (HUVECs G894T variant G/G) was 21.83 (51.78) %. For the same compound, the “% Change ONOO− (mean ± sd)” value (HUVECs G894T variant G/G) was −2.10 (27.33) %, the “% Change NO (mean ± sd)” value (HUVECs G894T variant G/T) was 20.99 (29.98) % and the “% Change NO/ONOO− (mean ± sd)” value (HUVECs G894T variant G/T) was 50.45 (77.28) %. The “% Change ONOO− (mean ± sd)” value (HUVECs G894T variant G/T) was −9.58 (26.95) %, the “% Change NO (mean ± sd)” value (HUVECs G894T variant T/T) was 8.69 (18.85) % and the “% Change NO/ONOO− (mean ± sd)” value (HUVECs G894T variant T/T) was 61.97 (81.82) %. For the same compound, the “% Change ONOO− (mean ± sd)” value (HUVECs G894T variant T/T) was −25.44 (21.34) %, the “% Change NO (mean ± sd)” value (HUVECs Intron 4 variant a/a) was −4.57 (24.67) % and the “% Change NO/ONOO− (mean ± sd)” value (HUVECs Intron 4 variant a/a) was −3.62 (44.56) %. For the same compound, the “% Change ONOO− (mean ± sd)” value (HUVECs Intron 4 variant a/a) was 9.62 (33.98) %, the “% Change NO (mean ± sd)” value (HUVECs Intron 4 variant b/a) was 20.51 (28.08) % and the “% Change NO/ONOO− (mean ± sd)” value (HUVECs Intron 4 variant b/a) was 42.92 (65.15) %. The “% Change ONOO− (mean ± sd)” value (HUVECs Intron 4 variant b/a) was −6.58 (30.92) %, the “% Change NO (mean ± sd)” value (HUVECs Intron 4 variant b/b) was 13.46 (23.13) % and the “% Change NO/ONOO− (mean ± sd)” value (HUVECs Intron 4 variant b/b) was 43.27 (71.09) %. The “% Change ONOO− (mean ± sd)” value (HUVECs Intron 4 variant b/b) was −10.24 (27.17) %, the “% Change NO (mean ± sd)” value (HUVECs Intron 4 variant c/c) was −26.76 (0) % and the “% Change NO/ONOO− (mean ± sd)” value (HUVECs Intron 4 variant c/c) was −26.15 (0) %. For the same compound, the “% Change ONOO− (mean ± sd)” value (HUVECs Intron 4 variant c/c) was −0.63 (0) %, the “% Change NO (mean ± sd)” value (HUVECs T-786C variant C/C) was 1.91 (11.63) % and the “% Change NO/ONOO− (mean ± sd)” value (HUVECs T-786C variant C/C) was 2.52 (35.64) %. For the same compound, the “% Change ONOO− (mean ± sd)” value (HUVECs T-786C variant C/C) was 11.13 (43.85) %, the “% Change NO (mean ± sd)” value (HUVECs T-786C variant T/C) was 17.70 (29.53) % and the “% Change NO/ONOO− (mean ± sd)” value (HUVECs T-786C variant T/C) was 52.82 (77.96) %. The “% Change ONOO− (mean ± sd)” value (HUVECs T-786C variant T/C) was −12.40 (28.22) %, the “% Change NO (mean ± sd)” value (HUVECs T-786C variant T/T) was 9.48 (17.79) % and the “% Change NO/ONOO− (mean ± sd)” value (HUVECs T-786C variant T/T) was 25.48 (51.97) %. For the same compound, the “% Change ONOO− (mean ± sd)” value (HUVECs T-786C variant T/T) was −5.17 (21.75) %, the “% Change Ratio, % Change NO/% Change ONOO− (mean ± sd)” value (LA-419 1 μM, HUVEC donor Race Asian) was −0.48 (0) and the “% Change Ratio, % Change NO/% Change ONOO− (mean ± sd)” value (LA-419 1 μM, HUVEC donor Race Black) was 2.81 (12.60). For the same compound, the “% Change Ratio, % Change NO/% Change ONOO− (mean ± sd)” value (LA-419 1 μM, HUVEC donor Race Not Reported) was −0.90 (0.28) and the “Net increase over control NO (mean ± sd)” value (LA-419 1 μM, HUVECs G894T + T-786C Combination of all genotypes other than G/G + T/T) was 38.70 (72.56) nmols/L.
